Experiments:
KBalb cells [1] = experiment: MTT cell proliferation assay, KBalb; format: cell-based, mouse; conditions: KBalb (mutated p21Ras), 48 h, inhibitor concentration as in Table 3
Experimental: (§1) FIGS. 1A-1C show effects of different PKC isoform inhibitors on proliferation of mouse fibroblast cells and human pancreatic cells. Cells were grown to 80% confluence in 96-well plates, then treated with the inhibitors at the concentrations indicated in Table I. The corresponding solvents with equivalent volume were used as vehicle controls. After 48 h treatment, cell proliferation was evaluated by MTT assay. Results are presented as the means ±SD. Statistical significance was determined using a paired Student's t-test, and p-values ≦0.05 were considered significant. […] Nuclear-free lysates containing a total of 400 μg protein from each indicated cell type were used for analysis of Ras activity by Raf-RBD pull down.
(§2) All inhibitors were dissolved in dimethyl sulfoxide for use, and their effects were measured relative to dimethyl sulfoxide (vehicle)-treated controls.
(§3) Cell Culture and Treatment. NIH/3T3 and Balb cell lines were obtained from ATCC (American Type Culture Collection, Rockville, Md.). NIH/3T3-Ras cells were produced by stable transfection of v-Harvey ras, and selected and maintained in 0.5 mg/ml of Geneticin (Gibco BRL, Gaithersburg, Md.). Ki-v-ras-Balb (KBalb) cells were produced by stable infection of Balb with retroviral vector stocks containing v-Kirsten ras, and were selected and maintained with Geneticin. The human pancreatic tumor lines Hs 766s, BxPC-3 and MIA PaCa-2, were obtained from ATCC. All cell lines were maintained in Dulbecco Modified Eagle medium (DMEM) (Gibco BRL) supplemented with 2 mM 1-glutamine, 100 U/ml of penicillin, and 100 μg/ml of streptomycin (Gibco BRL). […] Cell proliferation was assessed using an MTT [3-(4,5-dimethylthiazol-2-yl)-2,5-diphenyltetrazolium bromide] assay (Roche, Mannheim, Germany). […] The optical densities were quantified at a test wavelength of 550 nm and a reference wavelength of 630 nm on a multiwell spectrophotometer. siRNA Knockdown of PKCδ. siRNA duplexes (siRNAs) were obtained from Qiagen (Valencia, Calif.). […]

MIA PaCa-2 cells = experiment: MTT cell proliferation assay, MIA PaCa-2; format: cell-based, human; conditions: MIA PaCa-2 (mutated p21Ras), 48 h, inhibitor concentration as in Table 3
Experimental: as §1, §2, §3

KBalb cells [2] = experiment: Apoptotic (hypodiploid) fraction by propidium iodide flow cytometry, KBalb; format: cell-based, mouse; conditions: 60 h
Experimental: (§4) FIGS. 4A-4D show activation of apoptosis by individual p21^Ras-effector pathways. […] Cells were fixed and stained with propidium iodide, and the apoptotic (hypodiploid) fractions were evaluated by PI staining and flow cytometric analysis using the FL2-H channel. Cells transfected with the empty pSG5 vector served as negative controls. […] NIH/3T3 cells were pre-treated for 30 minutes with Ly294002 (10 μM) before rottlerin (20 μM) was added. The apoptotic (hypodiploid) fractions were evaluated 60 h later. […] The apoptotic (hypodiploid) fractions were evaluated 60 h later. Cells were fixed and stained with propidium iodide. DNA fragmentation was analyzed by flow cytometry using the FL2-H channel.
Cell Culture and Treatment. NIH/3T3 and Balb cell lines were obtained from ATCC (American Type Culture Collection, Rockville, Md.). […] Cell proliferation was assessed using an MTT [3-(4,5-dimethylthiazol-2-yl)-2,5-diphenyltetrazolium bromide] assay (Roche, Mannheim, Germany). […] The optical densities were quantified at a test wavelength of 550 nm and a reference wavelength of 630 nm on a multiwell spectrophotometer. siRNA Knockdown of PKCδ. siRNA duplexes (siRNAs) were obtained from Qiagen (Valencia, Calif.). […] PKCδ protein levels were determined by immunoblot analysis. […] PKCδ activity was measured with an assay kit (Upstate Cell Signaling). […]

NIH/3T3 cells = experiment: Apoptotic (hypodiploid) fraction by propidium iodide flow cytometry, NIH/3T3 cells expressing Ras effectors or effector mutants; format: cell-based, mouse
Experimental: as §4
Cell Culture and Treatment. NIH/3T3 and Balb cell lines were obtained from ATCC (American Type Culture Collection, Rockville, Md.). NIH/3T3-Ras cells were produced by stable transfection of v-Harvey ras, and selected and maintained in 0.5 mg/ml of Geneticin (Gibco BRL, Gaithersburg, Md.). Ki-v-ras-Balb (KBalb) cells were produced by stable infection of Balb with retroviral vector stocks containing v-Kirsten ras, and were selected and maintained with Geneticin. The human pancreatic tumor lines Hs 766s, BxPC-3 and MIA PaCa-2, were obtained from ATCC. All cell lines were maintained in Dulbecco Modified Eagle medium (DMEM) (Gibco BRL) supplemented with 2 mM 1-glutamine, 100 U/ml of penicillin, and 100 μg/ml of streptomycin (Gibco BRL). Media was additionally supplemented with 10% DCS (NIH/3T3, NIH/3T3-Ha-v-Ras, Balb/3T3, Ki-v-ras-Balb, and Balb-myc), or 10% FBS (BxPC-3, MIA PaCa-2). Cells were cultured at 37° C. and 5% CO2. Cell Proliferation Assay. Cell proliferation was assessed using an MTT [3-(4,5-dimethylthiazol-2-yl)-2,5-diphenyltetrazolium bromide] assay (Roche, Mannheim, Germany). […] The optical densities were quantified at a test wavelength of 550 nm and a reference wavelength of 630 nm on a multiwell spectrophotometer. siRNA Knockdown of PKCδ. siRNA duplexes (siRNAs) were obtained from Qiagen (Valencia, Calif.). […] PKCδ protein levels were determined by immunoblot analysis. […] PKCδ activity was measured with an assay kit (Upstate Cell Signaling). […] Immunocomplexes were washed three times with the kinase buffer (20 mM Tris-HCl, 10 mM MgCl2, pH 7.5) and then incubated with a PKC-specific peptide substrate, [γ-^33P]ATP, and inhibitors of cAMP-dependent kinase and calmodulin kinase for 10 min at 30° C. ^33P incorporated into the substrate was separated from residual ^33P using p81 filters and subsequently quantified by scintillation counting. β-actin antibody was used as negative control in immunoprecipitations. p21^Ras Activity Assays. […]

Hs766T cells = experiment: MTT cell proliferation assay, Hs766T; format: cell-based, human; conditions: Hs766T (wild-type p21Ras), 48 h, 20 μM
Experimental: as §1, §2
(§5) Cell Culture and Treatment. NIH/3T3 and Balb cell lines were obtained from ATCC (American Type Culture Collection, Rockville, Md.). […] Cell proliferation was assessed using an MTT [3-(4,5-dimethylthiazol-2-yl)-2,5-diphenyltetrazolium bromide] assay (Roche, Mannheim, Germany). […] The optical densities were quantified at a test wavelength of 550 nm and a reference wavelength of 630 nm on a multiwell spectrophotometer. siRNA Knockdown of PKCδ. siRNA duplexes (siRNAs) were obtained from Qiagen (Valencia, Calif.). […]

PKCδ [3] = experiment: Immunoblot analysis of PKCδ protein levels; format: cell-based; conditions: 20 μM, 48 h, all cell lines tested
Experimental: (§6) Cell Culture and Treatment. NIH/3T3 and Balb cell lines were obtained from ATCC (American Type Culture Collection, Rockville, Md.). NIH/3T3-Ras cells were produced by stable transfection of v-Harvey ras, and selected and maintained in 0.5 mg/ml of Geneticin (Gibco BRL, Gaithersburg, Md.). Ki-v-ras-Balb (KBalb) cells were produced by stable infection of Balb with retroviral vector stocks containing v-Kirsten ras, and were selected and maintained with Geneticin. The human pancreatic tumor lines Hs 766s, BxPC-3 and MIA PaCa-2, were obtained from ATCC. All cell lines were maintained in Dulbecco Modified Eagle medium (DMEM) (Gibco BRL) supplemented with 2 mM 1-glutamine, 100 U/ml of penicillin, and 100 μg/ml of streptomycin (Gibco BRL). Media was additionally supplemented with 10% DCS (NIH/3T3, NIH/3T3-Ha-v-Ras, Balb/3T3, Ki-v-ras-Balb, and Balb-myc), or 10% FBS (BxPC-3, MIA PaCa-2). Cells were cultured at 37° C. and 5% CO2. Cell Proliferation Assay. Cell proliferation was assessed using an MTT [3-(4,5-dimethylthiazol-2-yl)-2,5-diphenyltetrazolium bromide] assay (Roche, Mannheim, Germany). […] The optical densities were quantified at a test wavelength of 550 nm and a reference wavelength of 630 nm on a multiwell spectrophotometer. siRNA Knockdown of PKCδ. siRNA duplexes (siRNAs) were obtained from Qiagen (Valencia, Calif.). […]

Balb cells = experiment: MTT cell proliferation assay, Balb; format: cell-based, mouse; conditions: Balb (wild-type p21Ras), 48 h, 20 μM
Experimental: as §1, §2, §5

PKCδ [4] = format: cell-based
Experimental: as §6

## CN(C)CCCn1cc(C2=C(c3c[nH]c4ccccc34)C(=O)NC2=O)c2ccccc21 [Bis-1, Bisindolylmaleimide I]
KBalb cells [1]
  cell proliferation (MTT): strongly suppressed the growth
MIA PaCa-2 cells
  cell proliferation (MTT): strongly suppressed the growth

## CCCCCCCCCCCCCCCCOCC(CO)OC (stereo not shown) [HMG]
KBalb cells [1]
  cell proliferation (MTT): strongly suppressed the growth
MIA PaCa-2 cells
  cell proliferation (MTT): strongly suppressed the growth

## O=c1cc(N2CCOCC2)oc2c(-c3ccccc3)cccc12 [LY294002]
KBalb cells [2]; KBalb cells, pre-treatment before rottlerin 20 μM
  apoptosis induced by PKCδ inhibition blocked: 50%
NIH/3T3 cells; NIH/3T3 p110-CAAX, 20 μM pre-treatment 30 min, then rottlerin 20 μM 60 hours
  decrease of apoptosis induced by rottlerin: ~50%

## COc1cccc(-c2cc(=O)c3ccccc3o2)c1N [PD98095]
KBalb cells [2]; cells with activated p21Ras, 10 μM pre-treatment, rottlerin 20 μM, lesser degree than PI3K-inhibition
  suppression of p21Ras-dependent apoptosis: suppressed p21^Ras-dependent apoptosis to some extent

## CC(=O)c1c(O)c(C)c(O)c(Cc2c(O)c3c(c(C(=O)/C=C/c4ccccc4)c2O)OC(C)(C)C=C3)c1O [rottlerin, Rottlerin]
Hs766T cells
  cell proliferation (MTT): stimulated proliferation
KBalb cells [1]
  cell proliferation (MTT): dramatically and specifically decreased the proliferation
NIH/3T3 cells; 20 μM, 60 h, C40 greatest
  apoptosis in cells expressing p21Ras effector mutants S35, G37, C40: stimulated apoptosis to some extent
NIH/3T3 cells; NIH/3T3 Raf-22W, RIF-CAAX, rottlerin 20 μM, 60 h
  apoptosis in cells expressing Raf or Ral-GEF effectors: induced little apoptosis
NIH/3T3 cells; NIH/3T3 with activated PI3K (p110-CAAX), rottlerin 20 μM, 60 h
  apoptotic frequency: 38.22%
PKCδ [3]
  PKCδ protein levels after rottlerin: suppressed PKCδ levels somewhat
Balb cells
  cell proliferation (MTT): stimulated proliferation
MIA PaCa-2 cells
  cell proliferation (MTT): dramatically and specifically decreased the proliferation
PKCδ [4]
  PKCδ activity blocked: greater than 95%
